Measured values from ChEMBL document CHEMBL4265899, “Trisubstituted thiazoles as potent and selective inhibitors of Plasmodium falciparum protein kinase G (PfPKG)” (Bioorg Med Chem Lett, 2018).

Tests used:
[1] = target: cGMP-dependent protein kinase (Plasmodium falciparum, UniProt W7JX98); experiment: Inhibition of Plasmodium falciparum protein kinase G
[2] = test system: Plasmodium falciparum; experiment: Antimalarial activity against Plasmodium falciparum after 48 hrs by microbeta scintillation counting-based [3H]-hypoxanthine incorporation assay; format: functional, organism-based
[3] = target: Tyrosine-protein kinase Yes (Homo sapiens) (UniProt P07947); experiment: Inhibition of human YES1 at 100 nM
Chain of Tyrosine-protein kinase Yes (Homo sapiens) (P07947 2-543 limits assumed): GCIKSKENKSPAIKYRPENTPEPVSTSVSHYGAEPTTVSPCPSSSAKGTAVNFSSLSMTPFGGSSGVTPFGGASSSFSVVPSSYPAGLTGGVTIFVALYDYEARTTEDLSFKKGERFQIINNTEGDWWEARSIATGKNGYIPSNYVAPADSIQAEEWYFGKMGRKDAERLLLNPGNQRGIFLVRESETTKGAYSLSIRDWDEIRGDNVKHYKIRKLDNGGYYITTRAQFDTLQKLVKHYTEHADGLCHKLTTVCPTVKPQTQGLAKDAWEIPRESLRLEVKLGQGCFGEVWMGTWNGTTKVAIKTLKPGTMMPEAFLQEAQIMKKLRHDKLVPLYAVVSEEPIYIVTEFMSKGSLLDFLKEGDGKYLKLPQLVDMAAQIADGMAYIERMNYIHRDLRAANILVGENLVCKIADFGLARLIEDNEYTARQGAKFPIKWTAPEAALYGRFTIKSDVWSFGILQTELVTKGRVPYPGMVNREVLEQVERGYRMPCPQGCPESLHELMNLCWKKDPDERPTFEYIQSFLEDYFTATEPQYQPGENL

[4] = target: Tyrosine-protein kinase Lck (Homo sapiens) (UniProt P06239); experiment: Inhibition of human LCK at 100 nM
Chain of Tyrosine-protein kinase Lck (Homo sapiens) (P06239 2-509 limits assumed): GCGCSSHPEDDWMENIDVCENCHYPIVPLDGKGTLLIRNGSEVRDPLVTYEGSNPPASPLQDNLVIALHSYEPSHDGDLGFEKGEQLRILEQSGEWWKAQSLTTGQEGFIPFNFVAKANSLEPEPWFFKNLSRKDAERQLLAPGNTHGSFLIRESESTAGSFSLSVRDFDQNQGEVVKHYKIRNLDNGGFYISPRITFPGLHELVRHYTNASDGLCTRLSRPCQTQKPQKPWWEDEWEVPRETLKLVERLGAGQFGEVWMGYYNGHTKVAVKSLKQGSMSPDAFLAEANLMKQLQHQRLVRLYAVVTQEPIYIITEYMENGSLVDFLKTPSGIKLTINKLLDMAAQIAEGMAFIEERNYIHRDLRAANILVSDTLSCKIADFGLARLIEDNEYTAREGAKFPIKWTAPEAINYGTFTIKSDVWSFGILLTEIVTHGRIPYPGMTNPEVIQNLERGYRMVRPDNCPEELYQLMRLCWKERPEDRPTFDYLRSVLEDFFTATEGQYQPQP

[5] = target: Receptor tyrosine-protein kinase erbB-4 (Homo sapiens) (UniProt Q15303); experiment: Inhibition of human HER4 at 100 nM
Chain of Receptor tyrosine-protein kinase erbB-4 (Homo sapiens) (Q15303 whole entry): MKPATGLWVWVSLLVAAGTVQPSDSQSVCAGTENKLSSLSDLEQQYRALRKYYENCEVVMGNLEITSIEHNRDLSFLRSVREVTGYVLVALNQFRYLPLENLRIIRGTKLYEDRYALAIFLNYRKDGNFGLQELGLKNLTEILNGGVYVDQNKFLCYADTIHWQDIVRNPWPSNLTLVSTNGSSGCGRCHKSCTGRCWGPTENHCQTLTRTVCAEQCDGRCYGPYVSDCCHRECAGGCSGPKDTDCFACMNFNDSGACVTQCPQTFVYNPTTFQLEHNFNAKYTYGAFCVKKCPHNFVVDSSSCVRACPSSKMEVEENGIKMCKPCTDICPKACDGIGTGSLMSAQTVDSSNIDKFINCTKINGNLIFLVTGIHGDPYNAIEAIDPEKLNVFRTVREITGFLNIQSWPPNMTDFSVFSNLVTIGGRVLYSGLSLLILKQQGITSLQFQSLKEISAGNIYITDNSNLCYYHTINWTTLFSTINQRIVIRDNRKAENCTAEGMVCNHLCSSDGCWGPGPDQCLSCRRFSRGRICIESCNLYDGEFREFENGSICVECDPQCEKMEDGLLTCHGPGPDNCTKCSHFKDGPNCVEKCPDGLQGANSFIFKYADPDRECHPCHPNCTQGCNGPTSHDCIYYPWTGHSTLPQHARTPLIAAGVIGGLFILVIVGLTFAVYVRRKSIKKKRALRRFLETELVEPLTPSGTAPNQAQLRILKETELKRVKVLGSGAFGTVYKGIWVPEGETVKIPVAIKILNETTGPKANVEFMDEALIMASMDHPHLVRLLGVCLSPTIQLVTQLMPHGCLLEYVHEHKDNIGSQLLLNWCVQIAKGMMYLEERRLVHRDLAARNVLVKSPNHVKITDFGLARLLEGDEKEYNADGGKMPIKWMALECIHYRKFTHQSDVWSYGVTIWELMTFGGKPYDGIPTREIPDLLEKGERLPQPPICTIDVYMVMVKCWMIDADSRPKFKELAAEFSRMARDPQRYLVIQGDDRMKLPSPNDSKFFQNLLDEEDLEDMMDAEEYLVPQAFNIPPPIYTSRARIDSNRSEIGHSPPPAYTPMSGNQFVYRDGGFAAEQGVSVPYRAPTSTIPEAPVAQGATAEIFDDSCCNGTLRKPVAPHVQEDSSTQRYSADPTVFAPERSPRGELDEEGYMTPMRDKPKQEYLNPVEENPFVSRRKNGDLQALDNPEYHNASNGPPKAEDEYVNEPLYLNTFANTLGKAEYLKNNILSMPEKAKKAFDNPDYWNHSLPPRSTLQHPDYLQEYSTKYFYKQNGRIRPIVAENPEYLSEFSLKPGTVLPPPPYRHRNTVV

[6] = target: T1, Inhibitor of nuclear factor kappa-B kinase subunit epsilon (Homo sapiens) (UniProt Q14164); conditions: at 100 nM
T1 sequence (whole entry): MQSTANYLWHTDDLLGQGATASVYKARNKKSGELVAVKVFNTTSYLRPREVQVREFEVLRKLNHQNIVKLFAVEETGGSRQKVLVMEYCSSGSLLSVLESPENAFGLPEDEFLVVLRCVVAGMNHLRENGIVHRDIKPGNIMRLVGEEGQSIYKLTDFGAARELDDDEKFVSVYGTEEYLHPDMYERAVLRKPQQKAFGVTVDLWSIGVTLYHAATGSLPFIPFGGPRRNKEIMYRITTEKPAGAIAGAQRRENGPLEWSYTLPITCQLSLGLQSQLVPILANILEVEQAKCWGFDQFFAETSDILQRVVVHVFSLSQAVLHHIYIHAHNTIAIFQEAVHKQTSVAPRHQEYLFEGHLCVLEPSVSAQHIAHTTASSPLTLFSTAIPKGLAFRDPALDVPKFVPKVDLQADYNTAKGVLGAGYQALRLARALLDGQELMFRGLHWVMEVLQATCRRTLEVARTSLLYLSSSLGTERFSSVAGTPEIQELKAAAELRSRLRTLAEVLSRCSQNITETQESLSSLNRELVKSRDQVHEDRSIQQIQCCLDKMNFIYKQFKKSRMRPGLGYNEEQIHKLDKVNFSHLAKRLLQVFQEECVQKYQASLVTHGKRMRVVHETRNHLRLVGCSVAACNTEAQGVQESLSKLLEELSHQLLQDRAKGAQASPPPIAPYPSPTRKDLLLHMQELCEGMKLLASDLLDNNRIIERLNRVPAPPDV
Description: Inhibition of human IKKepsilon at 100 nM

[7] = species: Homo sapiens; conditions: at 100 nM
Description: Inhibition of human PKA at 100 nM

[8] = target: Casein kinase I isoform alpha (Homo sapiens) (UniProt P48729); experiment: Inhibition of human CK1 at 100 nM
Chain of Casein kinase I isoform alpha (Homo sapiens) (P48729 2-337 limits assumed): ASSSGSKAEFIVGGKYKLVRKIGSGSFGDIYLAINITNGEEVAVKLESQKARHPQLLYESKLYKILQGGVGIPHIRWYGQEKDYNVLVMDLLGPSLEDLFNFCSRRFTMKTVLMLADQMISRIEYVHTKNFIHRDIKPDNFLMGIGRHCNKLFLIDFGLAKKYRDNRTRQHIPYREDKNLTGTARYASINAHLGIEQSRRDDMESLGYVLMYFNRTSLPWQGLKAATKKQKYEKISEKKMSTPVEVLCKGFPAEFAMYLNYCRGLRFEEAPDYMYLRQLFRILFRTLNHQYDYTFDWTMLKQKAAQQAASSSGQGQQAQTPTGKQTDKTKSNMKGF

[9] = target: Misshapen-like kinase 1 (Homo sapiens) (UniProt Q8N4C8); experiment: Inhibition of human MINK1 at 100 nM
Chain of Misshapen-like kinase 1 (Homo sapiens) (Q8N4C8 whole entry, looked up): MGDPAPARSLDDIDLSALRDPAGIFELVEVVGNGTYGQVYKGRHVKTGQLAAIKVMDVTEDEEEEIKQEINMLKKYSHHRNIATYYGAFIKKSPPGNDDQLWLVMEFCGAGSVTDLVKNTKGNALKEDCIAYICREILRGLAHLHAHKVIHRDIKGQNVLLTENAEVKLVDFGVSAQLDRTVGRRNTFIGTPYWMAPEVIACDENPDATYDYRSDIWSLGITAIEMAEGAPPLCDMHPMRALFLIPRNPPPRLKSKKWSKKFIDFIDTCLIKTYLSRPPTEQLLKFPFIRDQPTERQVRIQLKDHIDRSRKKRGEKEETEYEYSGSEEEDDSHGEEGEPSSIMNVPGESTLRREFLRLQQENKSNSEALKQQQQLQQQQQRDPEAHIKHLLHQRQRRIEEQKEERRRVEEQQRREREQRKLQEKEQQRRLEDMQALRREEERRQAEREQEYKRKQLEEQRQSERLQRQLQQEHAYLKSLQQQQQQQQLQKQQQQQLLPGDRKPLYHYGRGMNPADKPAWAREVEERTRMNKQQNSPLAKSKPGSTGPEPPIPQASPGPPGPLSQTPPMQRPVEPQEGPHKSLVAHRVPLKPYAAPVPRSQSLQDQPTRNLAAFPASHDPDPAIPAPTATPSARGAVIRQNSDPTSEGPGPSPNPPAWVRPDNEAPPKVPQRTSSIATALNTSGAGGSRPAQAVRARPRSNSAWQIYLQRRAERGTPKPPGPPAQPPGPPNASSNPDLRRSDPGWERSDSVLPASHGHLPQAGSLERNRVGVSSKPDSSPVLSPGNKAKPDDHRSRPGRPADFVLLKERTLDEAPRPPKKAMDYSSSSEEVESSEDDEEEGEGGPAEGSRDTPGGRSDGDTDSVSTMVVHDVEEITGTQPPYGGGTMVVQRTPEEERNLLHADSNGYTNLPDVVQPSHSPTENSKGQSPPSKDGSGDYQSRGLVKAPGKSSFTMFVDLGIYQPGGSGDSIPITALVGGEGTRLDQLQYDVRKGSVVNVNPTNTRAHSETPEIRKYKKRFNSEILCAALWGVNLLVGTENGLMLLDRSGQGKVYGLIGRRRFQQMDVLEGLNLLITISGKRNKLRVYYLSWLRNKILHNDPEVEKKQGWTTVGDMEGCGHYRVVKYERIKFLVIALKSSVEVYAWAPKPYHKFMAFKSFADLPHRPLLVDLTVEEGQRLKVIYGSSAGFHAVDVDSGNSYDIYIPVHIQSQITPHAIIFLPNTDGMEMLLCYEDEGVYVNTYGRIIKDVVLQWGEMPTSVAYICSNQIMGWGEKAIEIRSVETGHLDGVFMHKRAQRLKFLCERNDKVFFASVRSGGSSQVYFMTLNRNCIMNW

[10] = target: T2, Serine/threonine-protein kinase D1 (Homo sapiens) (UniProt Q15139); experiment: Inhibition of human PKD1 at 100 nM
T2 sequence (whole entry): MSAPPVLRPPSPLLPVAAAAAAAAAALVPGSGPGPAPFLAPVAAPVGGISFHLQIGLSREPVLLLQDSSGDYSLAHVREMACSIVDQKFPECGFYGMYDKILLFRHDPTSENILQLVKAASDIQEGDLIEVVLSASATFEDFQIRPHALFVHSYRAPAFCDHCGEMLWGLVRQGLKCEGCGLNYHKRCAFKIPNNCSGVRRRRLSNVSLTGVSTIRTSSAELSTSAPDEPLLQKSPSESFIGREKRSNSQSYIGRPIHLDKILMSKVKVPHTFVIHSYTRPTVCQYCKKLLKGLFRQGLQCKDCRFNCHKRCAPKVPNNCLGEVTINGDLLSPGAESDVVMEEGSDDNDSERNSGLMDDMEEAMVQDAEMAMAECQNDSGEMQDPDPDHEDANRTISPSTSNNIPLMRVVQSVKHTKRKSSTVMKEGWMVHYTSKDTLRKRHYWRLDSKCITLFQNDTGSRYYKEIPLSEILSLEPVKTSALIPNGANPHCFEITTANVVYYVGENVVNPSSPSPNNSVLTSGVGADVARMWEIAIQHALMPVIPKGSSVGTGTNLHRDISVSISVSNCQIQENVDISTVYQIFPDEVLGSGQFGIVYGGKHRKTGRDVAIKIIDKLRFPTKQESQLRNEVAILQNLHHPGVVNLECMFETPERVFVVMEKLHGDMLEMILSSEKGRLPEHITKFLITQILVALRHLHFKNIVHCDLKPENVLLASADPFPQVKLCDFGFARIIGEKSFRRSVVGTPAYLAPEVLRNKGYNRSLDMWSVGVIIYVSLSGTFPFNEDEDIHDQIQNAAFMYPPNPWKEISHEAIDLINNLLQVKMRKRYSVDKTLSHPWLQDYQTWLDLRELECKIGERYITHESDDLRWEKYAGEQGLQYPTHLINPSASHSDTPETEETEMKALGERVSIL

[11] = target: T3, Inhibitor of nuclear factor kappa-B kinase subunit beta (Homo sapiens) (UniProt O14920); conditions: at 100 nM
T3 sequence (whole entry): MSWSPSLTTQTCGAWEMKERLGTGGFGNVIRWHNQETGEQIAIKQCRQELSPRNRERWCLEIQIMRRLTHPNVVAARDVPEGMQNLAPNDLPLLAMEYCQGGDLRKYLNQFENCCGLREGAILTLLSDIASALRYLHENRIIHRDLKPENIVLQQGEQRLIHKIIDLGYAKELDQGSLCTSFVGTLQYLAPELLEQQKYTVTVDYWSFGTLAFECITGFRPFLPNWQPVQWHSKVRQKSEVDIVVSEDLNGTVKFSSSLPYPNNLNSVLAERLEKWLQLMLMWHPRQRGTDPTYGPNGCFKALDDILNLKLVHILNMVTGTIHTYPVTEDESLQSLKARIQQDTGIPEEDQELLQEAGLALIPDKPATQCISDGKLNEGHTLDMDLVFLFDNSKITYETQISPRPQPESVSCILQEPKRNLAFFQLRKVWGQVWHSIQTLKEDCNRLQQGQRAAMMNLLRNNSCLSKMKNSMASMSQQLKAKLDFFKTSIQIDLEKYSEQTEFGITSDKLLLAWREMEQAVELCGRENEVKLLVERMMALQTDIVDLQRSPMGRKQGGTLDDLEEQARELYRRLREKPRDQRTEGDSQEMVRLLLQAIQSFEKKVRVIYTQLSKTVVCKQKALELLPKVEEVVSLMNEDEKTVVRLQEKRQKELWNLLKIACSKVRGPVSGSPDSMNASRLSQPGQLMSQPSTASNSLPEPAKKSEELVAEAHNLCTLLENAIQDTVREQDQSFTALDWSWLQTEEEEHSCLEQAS
Description: Inhibition of human IKKb at 100 nM

Chain of cGMP-dependent protein kinase (W7JX98 whole entry): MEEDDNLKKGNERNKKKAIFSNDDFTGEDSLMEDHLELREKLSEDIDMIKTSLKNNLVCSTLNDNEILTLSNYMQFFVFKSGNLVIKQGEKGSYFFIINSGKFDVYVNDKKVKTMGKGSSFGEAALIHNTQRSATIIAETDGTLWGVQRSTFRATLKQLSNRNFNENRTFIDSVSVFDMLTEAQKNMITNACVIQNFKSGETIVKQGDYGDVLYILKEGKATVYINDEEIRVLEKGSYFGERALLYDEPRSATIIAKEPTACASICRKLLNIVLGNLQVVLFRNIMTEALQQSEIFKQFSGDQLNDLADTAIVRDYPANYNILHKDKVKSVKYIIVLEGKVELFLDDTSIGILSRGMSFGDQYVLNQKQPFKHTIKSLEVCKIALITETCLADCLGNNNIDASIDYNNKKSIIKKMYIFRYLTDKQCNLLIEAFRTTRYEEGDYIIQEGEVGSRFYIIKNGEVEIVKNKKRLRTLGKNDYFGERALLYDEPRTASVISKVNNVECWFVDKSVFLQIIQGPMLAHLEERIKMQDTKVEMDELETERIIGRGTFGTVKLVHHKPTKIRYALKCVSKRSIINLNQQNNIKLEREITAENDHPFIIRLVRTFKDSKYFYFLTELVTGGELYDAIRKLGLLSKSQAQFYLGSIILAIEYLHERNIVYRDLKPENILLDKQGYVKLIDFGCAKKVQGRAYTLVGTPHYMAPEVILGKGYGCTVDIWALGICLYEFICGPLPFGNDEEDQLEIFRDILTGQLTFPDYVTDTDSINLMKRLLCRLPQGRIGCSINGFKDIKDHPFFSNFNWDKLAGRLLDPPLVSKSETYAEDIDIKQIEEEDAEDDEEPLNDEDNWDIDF

SMILES | IC50 [1] | EC50 [2] | other results
CN1CCC(c2nc(-c3cccc(S(C)(=O)=O)c3)c(-c3ccnc(N)n3)s2)CC1 | 33 nM | 4570 nM | –
CN1CCC(c2nc(-c3ccc(F)cc3)c(-c3ccnc(Nc4ccc(N5CCNCC5)cc4)n3)s2)CC1 | – | – | inhibition [3]: > 90%; inhibition [4]: > 90%; inhibition [5]: > 90%; inhibition [6]: < 70%; inhibition [7]: < 70%; inhibition [8]: > 90%; inhibition [9]: > 90%; inhibition [10]: > 90%; inhibition [11]: < 70%
CN(C)Cc1ccn2c(-c3ccnc(N)n3)c(-c3ccc(F)cc3)nc2c1 | 3 nM | 400 nM | –
CN1CCC(c2nc(-c3cccc(S(C)(=O)=O)c3)c(-c3ccnc(NCC4CC4)n3)s2)CC1 | 6 nM | 1330 nM | –
CN1CCC(c2nc(C3CC3)c(-c3ccnc(Nc4ccc(N5CCNCC5)cc4)n3)s2)CC1 | 47 nM | 90 nM | –
CN1CCC(c2nc(-c3cccc(S(C)(=O)=O)c3)c(-c3ccnc(NC4CCOCC4)n3)s2)CC1 | 9 nM | 1560 nM | –
CN1CCC(c2nc(-c3ccc(F)cc3)c(-c3ccnc(Nc4ccc(C5CCNCC5)cc4)n3)s2)CC1 | 0.3 nM | 25 nM | –
Fc1ccc(-c2nc(C3CCNCC3)sc2-c2ccnc(Nc3ccc(N4CCNCC4)cc3)n2)cc1 | 0.5 nM | 73 nM | –
CN1CCC(c2cc(-c3ccncc3)c(-c3ccc(F)cc3)[nH]2)CC1 | 6 nM | 450 nM | –
CN1CCC(c2nc(-c3ccc(F)cc3)c(-c3ccnc(Nc4ccc(N5CCN(C)CC5)cc4)n3)s2)CC1 | 1 nM | 155 nM | –
CN1CCC(c2nc(-c3ccc(F)cc3)c(-c3ccnc(N)n3)s2)CC1 | 17 nM | 1810 nM | –
CN1CCC(c2nc(-c3cccc(S(C)(=O)=O)c3)c(-c3ccnc(NC4CC4)n3)s2)CC1 | 17 nM | – | –
CNc1nccc(-c2sc(C3CCN(C)CC3)nc2-c2ccc(F)cc2)n1 | 15 nM | 1490 nM | –
CN1CCC(c2nc(-c3ccc(F)cc3)c(-c3ccncn3)s2)C1 (stereo not given) | 6 nM | 144 nM | –
Cc1nc(C2CCN(C)CC2)sc1-c1ccnc(Nc2ccc(N3CCNCC3)cc2)n1 | 149 nM | – | –
